The source of these data is patent US8263603B2, “N3-substituted-N1-sulfonyl-5-fluoropyrimidinone derivatives” (Dow AgroSciences, LLC, priority 2010, dated 2012).

For series [1], the system named is Mycosphaerella graminicola; anamorph: Septoria tritici; Bayer code SEPTTR. The series can be described thus: Fungicidal activity against leaf blotch of wheat, one-day protectant (1 DP). The series is classed as in vivo. As to conditions: Zymoseptoria tritici, 24 h, wheat plants (variety Yuma), rating of % disease control. The protocol: (§1) Evaluation of Fungicidal Activity: Leaf Blotch of Wheat (Mycosphaerella graminicola; anamorph: Septoria tritici; Bayer code […]) Wheat plants (variety Yuma) were grown from seed in a greenhouse in 50% mineral soil/50% soil-less Metro mix until the first leaf was fully emerged, with 7-10 seedlings per pot. These plants were inoculated with an aqueous spore suspension of Septoria tritici either prior to or after fungicide treatments. After inoculation the plants were kept in 100% relative humidity (one day in a dark dew chamber followed by two days in a lighted dew chamber) to permit spores to germinate and infect the leaf. The plants were then transferred to a greenhouse for disease to develop. The following table presents the activity of typical compounds of the present disclosure when evaluated in these experiments. The effectiveness of the test compounds in controlling disease was determined by assessing the severity of disease on treated plants, and then converting the severity to percent control based on the level of disease on untreated, inoculated plants. • In each case of Table II the rating scale is as follows: […]

For series [2] the test system is unchanged. The series can be described thus: Fungicidal activity against leaf blotch of wheat, three-day curative (3 DC). The series is classed as in vivo. As to conditions: Zymoseptoria tritici, 72 h, wheat plants (variety Yuma), rating of % disease control. The protocol: as §1

In general, pest or weed control refers to the degree to which the test organism was suppressed or injured, in per cent. In general, melting point refers to the temperature of the solid-liquid transition. `Cn1c(=N)c(F)cn(S(=O)(=O)c2ccccc2)c1=O` [Compound 1, 1-Benzenesulfonyl-5-fluoro-4-imino-3-methyl-3,4-dihydro-1H-pyrimidin-2-one]: the melting point turned out to be 144 °C. This molecule also came in with a pest or weed control at 100 ppm in series [1] of 76 to 100%. The pest or weed control at 100 ppm in series [2] was 76 to 100%.

Turning to `Cn1c(=N)c(F)cn(S(=O)(=O)c2cccs2)c1=O` [Compound 2], the melting point lay within 136 to 139 °C. The pest or weed control at 100 ppm in series [1] was in the range of 76 to 100%. The pest or weed control at 100 ppm in series [2] lay within 76 to 100%.

In the case of `COc1ccc(S(=O)(=O)n2cc(F)c(=N)n(C)c2=O)cc1` [Compound 3], the melting point lay in the range of 158 to 162 °C. In series [1], this molecule came in with a pest or weed control at 100 ppm of 76 to 100%. Moreover, in series [2], the pest or weed control at 100 ppm lay within 76 to 100%.

Turning to `Cn1c(=N)c(F)cn(S(=O)(=O)c2ccc(Cl)cc2)c1=O` [Compound 4], the melting point is 147 to 150 °C. Also, the pest or weed control at 100 ppm in series [1] was 76 to 100%. The molecule also gave a pest or weed control at 100 ppm in series [2] of 76 to 100%.

`COc1ccc(S(=O)(=O)n2cc(F)c(=N)n(Cc3ccccc3)c2=O)cc1` [Compound 5, 3-benzyl-5-fluoro-4-imino-1-(4-methoxyphenylsulfonyl)-3,4-dihydropyrimidin-2(1H)-one]: the pest or weed control at 100 ppm in series [1] and in series [2] was 0 to 25% in each case.

For the molecule `CCn1c(=N)c(F)cn(S(=O)(=O)c2ccccc2)c1=O` [Compound 6, 1-benzenesulfonyl-5-fluoro-4-imino-3-ethyl-3,4-dihydro-1H-pyrimidin-2-one], the melting point is 163 to 166 °C. The molecule also yielded a pest or weed control at 100 ppm in series [1] of 0 to 25%. The pest or weed control at 100 ppm in series [2] is 0 to 25%.

Regarding `CCn1c(=N)c(F)cn(S(=O)(=O)c2ccc(Cl)cc2)c1=O` [Compound 7], the melting point lay within 165 to 168 °C. This molecule gave a pest or weed control at 100 ppm in series [1] of 51 to 75%. This molecule yielded a pest or weed control at 100 ppm in series [2] of 76 to 100%.

As for `CCn1c(=N)c(F)cn(S(=O)(=O)c2ccc(OC)cc2)c1=O` [Compound 8], the melting point is 107 to 111 °C. In series [1], this molecule displayed a pest or weed control at 100 ppm of 0 to 25%. In series [2], this molecule yielded a pest or weed control at 100 ppm of 51 to 75%.

In turn, `CCn1c(=N)c(F)cn(S(=O)(=O)c2c(Cl)cccc2Cl)c1=O` [Compound 9] displayed a melting point of 182 to 185 °C. Besides, the pest or weed control at 100 ppm in series [1] is 0 to 25%. The same molecule registered a pest or weed control at 100 ppm in series [2] of 76 to 100%.
